# Measured values: the NIST ThermoML archive (doi:10.1021/je200637v)
# ± gives the expanded uncertainty stated by the source.
# Assay: activity coefficient (dimensionless); of the first substance listed, at infinite dilution; xn = mol fraction of the nth substance listed
# Conditions: Liquid, Chromatography, x1 = 0
Structure (SMILES),activity coefficient (322.85 K),activity coefficient (332.65 K),activity coefficient (343.15 K)
ClCCl [dichloromethane] + CCCCCCCC[N+](C)(C)C.O=S(=O)([N-]S(=O)(=O)C(F)(F)F)C(F)(F)F,0.51 ± 0.03,0.53 ± 0.03,0.54 ± 0.03
ClCCl [dichloromethane] + CCCCCCCC[N+](CCCCCCCC)(CCCCCCCC)CCCCCCCC.O=S(=O)([N-]S(=O)(=O)C(F)(F)F)C(F)(F)F,0.29 ± 0.04,0.3 ± 0.04,0.31 ± 0.04
ClCCl [dichloromethane] + CCCC[N+](C)(CCCC)CCCC.O=S(=O)([N-]S(=O)(=O)C(F)(F)F)C(F)(F)F,0.66 ± 0.03,0.69 ± 0.03,0.7 ± 0.03
CCOCC [diethyl ether] + CCCCCCCCCC[N+](C)(C)C.O=S(=O)([N-]S(=O)(=O)C(F)(F)F)C(F)(F)F,1.23 ± 0.04,1.24 ± 0.04,1.21 ± 0.04
CCOCC [diethyl ether] + CCCCCCCC[N+](C)(C)C.O=S(=O)([N-]S(=O)(=O)C(F)(F)F)C(F)(F)F,1.6 ± 0.06,1.57 ± 0.06,1.53 ± 0.06
CCOCC [diethyl ether] + CCCCCCCC[N+](CCCCCCCC)(CCCCCCCC)CCCCCCCC.O=S(=O)([N-]S(=O)(=O)C(F)(F)F)C(F)(F)F,0.71 ± 0.03,0.71 ± 0.03,0.71 ± 0.03
CCOCC [diethyl ether] + CCCC[N+](C)(CCCC)CCCC.O=S(=O)([N-]S(=O)(=O)C(F)(F)F)C(F)(F)F,1.65 ± 0.07,1.67 ± 0.07,1.65 ± 0.07
CC(C)OC(C)C [diisopropyl ether] + CCCCCCCCCC[N+](C)(C)C.O=S(=O)([N-]S(=O)(=O)C(F)(F)F)C(F)(F)F,2.19 ± 0.1,2.32 ± 0.11,2.3 ± 0.1
CC(C)OC(C)C [diisopropyl ether] + CCCCCCCC[N+](C)(C)C.O=S(=O)([N-]S(=O)(=O)C(F)(F)F)C(F)(F)F,3.22 ± 0.15,3.15 ± 0.14,3.08 ± 0.14
CC(C)OC(C)C [diisopropyl ether] + CCCCCCCC[N+](CCCCCCCC)(CCCCCCCC)CCCCCCCC.O=S(=O)([N-]S(=O)(=O)C(F)(F)F)C(F)(F)F,1.08 ± 0.03,1.08 ± 0.03,1.08 ± 0.03
CC(C)OC(C)C [diisopropyl ether] + CCCC[N+](C)(CCCC)CCCC.O=S(=O)([N-]S(=O)(=O)C(F)(F)F)C(F)(F)F,3.31 ± 0.15,3.35 ± 0.15,3.35 ± 0.15
CCCCCCCCCCCC [dodecane] + CCCCCCCCCC[N+](C)(C)C.O=S(=O)([N-]S(=O)(=O)C(F)(F)F)C(F)(F)F,15.1 ± 0.7,14.8 ± 0.68,13.8 ± 0.63
CCCCCCCCCCCC [dodecane] + CCCCCCCC[N+](C)(C)C.O=S(=O)([N-]S(=O)(=O)C(F)(F)F)C(F)(F)F,33.1 ± 1.5,30.5 ± 1.4,27.1 ± 1.3
CCCCCCCCCCCC [dodecane] + CCCCCCCC[N+](CCCCCCCC)(CCCCCCCC)CCCCCCCC.O=S(=O)([N-]S(=O)(=O)C(F)(F)F)C(F)(F)F,–,–,2.72 ± 0.12
CCCCCCCCCCCC [dodecane] + CCCC[N+](C)(CCCC)CCCC.O=S(=O)([N-]S(=O)(=O)C(F)(F)F)C(F)(F)F,32.4 ± 1.5,31.3 ± 1.4,28.8 ± 1.3
CCO [ethanol] + CCCCCCCCCC[N+](C)(C)C.O=S(=O)([N-]S(=O)(=O)C(F)(F)F)C(F)(F)F,1.29 ± 0.04,1.19 ± 0.04,1.07 ± 0.03
CCO [ethanol] + CCCCCCCC[N+](C)(C)C.O=S(=O)([N-]S(=O)(=O)C(F)(F)F)C(F)(F)F,1.47 ± 0.06,1.32 ± 0.05,1.19 ± 0.04
CCO [ethanol] + CCCCCCCC[N+](CCCCCCCC)(CCCCCCCC)CCCCCCCC.O=S(=O)([N-]S(=O)(=O)C(F)(F)F)C(F)(F)F,1.18 ± 0.04,1.12 ± 0.03,1.05 ± 0.03
CCO [ethanol] + CCCC[N+](C)(CCCC)CCCC.O=S(=O)([N-]S(=O)(=O)C(F)(F)F)C(F)(F)F,1.53 ± 0.06,1.4 ± 0.05,1.27 ± 0.04
CCc1ccccc1 [ethylbenzene] + CCCCCCCCCC[N+](C)(C)C.O=S(=O)([N-]S(=O)(=O)C(F)(F)F)C(F)(F)F,1.16 ± 0.04,1.2 ± 0.04,1.19 ± 0.04
CCc1ccccc1 [ethylbenzene] + CCCCCCCC[N+](C)(C)C.O=S(=O)([N-]S(=O)(=O)C(F)(F)F)C(F)(F)F,1.39 ± 0.05,1.4 ± 0.05,1.38 ± 0.05
CCc1ccccc1 [ethylbenzene] + CCCCCCCC[N+](CCCCCCCC)(CCCCCCCC)CCCCCCCC.O=S(=O)([N-]S(=O)(=O)C(F)(F)F)C(F)(F)F,0.59 ± 0.03,0.6 ± 0.03,0.61 ± 0.03
CCc1ccccc1 [ethylbenzene] + CCCC[N+](C)(CCCC)CCCC.O=S(=O)([N-]S(=O)(=O)C(F)(F)F)C(F)(F)F,1.56 ± 0.06,1.64 ± 0.07,1.63 ± 0.07

Structure (SMILES),activity coefficient (322.85 K),activity coefficient (332.65 K),activity coefficient (343.15 K)
CCCCCCC [heptane] + CCCCCCCCCC[N+](C)(C)C.O=S(=O)([N-]S(=O)(=O)C(F)(F)F)C(F)(F)F,5.26 ± 0.24,5.14 ± 0.23,4.92 ± 0.22
CCCCCCC [heptane] + CCCCCCCC[N+](C)(C)C.O=S(=O)([N-]S(=O)(=O)C(F)(F)F)C(F)(F)F,8.27 ± 0.38,7.81 ± 0.36,7.18 ± 0.33
CCCCCCC [heptane] + CCCCCCCC[N+](CCCCCCCC)(CCCCCCCC)CCCCCCCC.O=S(=O)([N-]S(=O)(=O)C(F)(F)F)C(F)(F)F,1.5 ± 0.06,1.48 ± 0.06,1.47 ± 0.06
CCCCCCC [heptane] + CCCC[N+](C)(CCCC)CCCC.O=S(=O)([N-]S(=O)(=O)C(F)(F)F)C(F)(F)F,8.88 ± 0.41,8.82 ± 0.4,8.34 ± 0.38
C=CCCCC [hex-1-ene] + CCCCCCCCCC[N+](C)(C)C.O=S(=O)([N-]S(=O)(=O)C(F)(F)F)C(F)(F)F,2.7 ± 0.12,2.86 ± 0.13,2.76 ± 0.13
C=CCCCC [hex-1-ene] + CCCCCCCC[N+](C)(C)C.O=S(=O)([N-]S(=O)(=O)C(F)(F)F)C(F)(F)F,3.99 ± 0.18,3.8 ± 0.17,3.6 ± 0.16
C=CCCCC [hex-1-ene] + CCCCCCCC[N+](CCCCCCCC)(CCCCCCCC)CCCCCCCC.O=S(=O)([N-]S(=O)(=O)C(F)(F)F)C(F)(F)F,1.05 ± 0.03,1.05 ± 0.03,1.04 ± 0.03
C=CCCCC [hex-1-ene] + CCCC[N+](C)(CCCC)CCCC.O=S(=O)([N-]S(=O)(=O)C(F)(F)F)C(F)(F)F,4.31 ± 0.2,4.4 ± 0.2,4.25 ± 0.19
CCCCCC [hexane] + CCCCCCCCCC[N+](C)(C)C.O=S(=O)([N-]S(=O)(=O)C(F)(F)F)C(F)(F)F,4.2 ± 0.19,4.1 ± 0.18,3.93 ± 0.17
CCCCCC [hexane] + CCCCCCCC[N+](C)(C)C.O=S(=O)([N-]S(=O)(=O)C(F)(F)F)C(F)(F)F,6.21 ± 0.28,5.83 ± 0.27,5.36 ± 0.24
CCCCCC [hexane] + CCCCCCCC[N+](CCCCCCCC)(CCCCCCCC)CCCCCCCC.O=S(=O)([N-]S(=O)(=O)C(F)(F)F)C(F)(F)F,1.3 ± 0.04,1.29 ± 0.04,1.28 ± 0.04
CCCCCC [hexane] + CCCC[N+](C)(CCCC)CCCC.O=S(=O)([N-]S(=O)(=O)C(F)(F)F)C(F)(F)F,6.75 ± 0.31,6.75 ± 0.31,6.44 ± 0.29
C=O [methanal] + CCCCCCCCCC[N+](C)(C)C.O=S(=O)([N-]S(=O)(=O)C(F)(F)F)C(F)(F)F,0.09 ± 0.04,0.1 ± 0.04,0.11 ± 0.04
C=O [methanal] + CCCCCCCC[N+](C)(C)C.O=S(=O)([N-]S(=O)(=O)C(F)(F)F)C(F)(F)F,0.1 ± 0.04,0.11 ± 0.04,0.12 ± 0.04
C=O [methanal] + CCCCCCCC[N+](CCCCCCCC)(CCCCCCCC)CCCCCCCC.O=S(=O)([N-]S(=O)(=O)C(F)(F)F)C(F)(F)F,0.07,0.08,0.09 ± 0.04
C=O [methanal] + CCCC[N+](C)(CCCC)CCCC.O=S(=O)([N-]S(=O)(=O)C(F)(F)F)C(F)(F)F,0.11 ± 0.04,0.12 ± 0.04,0.13 ± 0.04
CO [methanol] + CCCCCCCCCC[N+](C)(C)C.O=S(=O)([N-]S(=O)(=O)C(F)(F)F)C(F)(F)F,0.79 ± 0.03,0.91 ± 0.03,0.66 ± 0.03
CO [methanol] + CCCCCCCC[N+](C)(C)C.O=S(=O)([N-]S(=O)(=O)C(F)(F)F)C(F)(F)F,0.92 ± 0.03,0.78 ± 0.03,0.81 ± 0.03
CO [methanol] + CCCCCCCC[N+](CCCCCCCC)(CCCCCCCC)CCCCCCCC.O=S(=O)([N-]S(=O)(=O)C(F)(F)F)C(F)(F)F,0.65 ± 0.03,0.76 ± 0.03,0.82 ± 0.03
CO [methanol] + CCCC[N+](C)(CCCC)CCCC.O=S(=O)([N-]S(=O)(=O)C(F)(F)F)C(F)(F)F,0.96 ± 0.03,0.75 ± 0.03,0.88 ± 0.03
CC1CCCCC1 [methylcyclohexane] + CCCCCCCCCC[N+](C)(C)C.O=S(=O)([N-]S(=O)(=O)C(F)(F)F)C(F)(F)F,3.57 ± 0.16,3.57 ± 0.16,3.39 ± 0.15
CC1CCCCC1 [methylcyclohexane] + CCCCCCCC[N+](C)(C)C.O=S(=O)([N-]S(=O)(=O)C(F)(F)F)C(F)(F)F,5.23 ± 0.24,4.93 ± 0.23,4.6 ± 0.21
